Assay results from ChEMBL document CHEMBL5634204, “Goondansamycins A-H: Benzenoid Ansamycins from an Australian Volcanic Crater Soil-Derived Actinomadura sp. S4S-00069B08” (J Nat Prod, 2024).
pIC50: −log10 of the molar value.

Legend:
[1] = system: Staphylococcus aureus; assay: Antibacterial activity against Staphylococcus aureus ATCC 25923 assessed as inhibition of bacterial growth incubated for 24 hrs by spectrophotometry; assay type: functional, organism-based; conditions: ATCC 25923, 24 h
[2] = system: NCI-H460; assay: Cytotoxicity against human NCI-H460 cells assessed as inhibition of cell growth incubated for 48 hrs by MTT assay; assay type: functional, cell-based; conditions: NCI-H460, 48 h
[3] = system: SW-620; assay: Cytotoxicity against human SW620 cells assessed as inhibition of cell growth incubated for 48 hrs by MTT assay; assay type: functional, cell-based; conditions: SW-620, 48 h
[4] = system: Candida albicans; assay: Antifungal activity against Candida albicans ATCC 10231 assessed as inhibition of fungal growth incubated for 48 hrs by spectrophotometry; assay type: functional, organism-based; conditions: ATCC 10231, 48 h
[5] = system: Escherichia coli; assay: Antibacterial activity against Escherichia coli ATCC 11775 assessed as inhibition of bacterial growth incubated for 24 hrs by spectrophotometry; assay type: functional, organism-based; conditions: ATCC 11775, 24 h

Measured: pIC50

CCC(=O)[C@@H](C)C/C(C)=C/[C@@H](C)[C@H](O[C@@H]1CC[C@@H](O)[C@@H](C)O1)C1=CC(=O)C=C(N)C1=O
< 4.52: all assays above

C/C1=C\[C@@H](C)[C@H](O[C@@H]2CC[C@@H](O)[C@@H](C)O2)c2cc(O)cc3c2O[C@](C)(C(=O)N3)C(=O)[C@@H](C)C1
< 4.52: all assays above

C/C1=C\[C@@H](C)[C@H](O)c2cc(O)cc3c2O[C@](C)(C(=O)N3)C(=O)[C@H](C)C1
< 4.52: all assays above

C/C1=C\[C@@H](C)[C@H](O[C@@H]2CC[C@@H](O)[C@@H](C)O2)C2=CC(=O)C(N)=C(NC(=O)C(C)C(=O)[C@@H](C)C1)C2=O (stereo not given in full)
< 4.52: all assays above

C/C1=C\[C@@H](C)[C@H](O)c2cc(O)cc(c2O)NC(=O)[C@@H](C)C(=O)[C@@H](C)C1
< 4.52: all assays above

C/C1=C\C(C)C(O)c2cc(O)cc3c2OC(CO)(C(=O)N3)C(=O)C(C)C1 (stereo not given)
< 4.52: all assays above

C/C1=C\[C@@H](C)[C@H](O)C2=CC(=O)C(N)=C(NC(=O)C(C)C(=O)[C@@H](C)C1)C2=O (stereo not given in full)
< 4.52: all assays above

C/C1=C\[C@@H](C)[C@H](O)c2cc(O)cc3c2O[C@](C)(C(=O)N3)C(=O)[C@@H](C)C1
< 4.52: all assays above

C/C1=C\C(C)C(O)c2cc(O)cc3c2OC(C)(C(=O)N3)C(=O)C(C)C1 (stereo not given)
< 4.52: all assays above

C/C1=C\[C@@H](C)[C@H](O[C@@H]2CC[C@H](O)[C@@H](C)O2)c2cc(O)cc3c2O[C@](C)(C(=O)N3)C(=O)[C@@H](C)C1
< 4.52: all assays above
